Calls of active or inactive are those of the source. The rule behind the calls is not given here.

In data set [1] the test system is PC-3. As to the kind of experiment: Cytotoxicity against PSMA-negative human PC3 cells by MTT assay. Type of data set: functional. (In general: Formazan colour is commonly taken as a measure of viable cells.)
For data set [2], the system named is PC-3. As to the kind of experiment: Cytotoxicity against PSMA-negative human PC3 cells by cellTiter 96 aqueous cell proliferation assay. Type of data set: functional, cell-based.
A further data set deals with LNCaP. Nature of the data set: Cytotoxicity against PSMA-positive human LNCAP cells by MTT assay. The class given is functional.
Data set [3] in a line: Drug uptake in nucleus of PSMA-negative human PC3 cells at 15 uM measured after 2 hrs by DAPI staining based fluorescence assay. Type of data set: ADME, subcellular. As to conditions: pc-3, 2 h.
Data set [4] can be described thus: Drug uptake in nucleus of PSMA-positive human LNCAP cells measured after 48 hrs. The class given is ADME, subcellular.
The nature of data set [5]: Drug uptake in nucleus of PSMA-positive human LNCAP cells at 15 uM measured after 2 hrs by DAPI staining based fluorescence assay. The class given is ADME, subcellular.
The test system of another data set is LNCaP C4-2. Nature of the data set: Cytotoxicity against PSMA-positive human C4-2 cells by cellTiter 96 aqueous cell proliferation assay. Type of data set: functional, cell-based.
Data set [6] in a line: Ratio of drug level in nucleus to cytoplasm of PSMA-positive human LNCAP cells measured after 40 milliseconds. Type of data set: ADME.
Data set [7] can be described thus: Ratio of drug level in nucleus to cytoplasm of PSMA-negative human PC3 cells measured after 40 milliseconds. Type of data set: ADME.
A short description of data set [8]: Antitumor activity against PSMA-positive human PC3-PIP cells xenografted in nu/nu mouse assessed as tumor growth inhibition at 4 mg/kg, ip per week for 3 weeks relative to control. The class given is functional. As to conditions: 504 h, read-out: TGI. In general terms: Xenograft models place foreign cells or tissue in a host animal.
For data set [9], the target named is T1, Glutamate carboxypeptidase 2 (Homo sapiens, UniProt Q04609). As to the kind of experiment: Binding affinity to PSMA in human LNCAP cells assessed as doxorubicin release in nucleus measured after 40 milliseconds. The class given is ADME, cell-based.
T1 sequence (Q04609 whole entry): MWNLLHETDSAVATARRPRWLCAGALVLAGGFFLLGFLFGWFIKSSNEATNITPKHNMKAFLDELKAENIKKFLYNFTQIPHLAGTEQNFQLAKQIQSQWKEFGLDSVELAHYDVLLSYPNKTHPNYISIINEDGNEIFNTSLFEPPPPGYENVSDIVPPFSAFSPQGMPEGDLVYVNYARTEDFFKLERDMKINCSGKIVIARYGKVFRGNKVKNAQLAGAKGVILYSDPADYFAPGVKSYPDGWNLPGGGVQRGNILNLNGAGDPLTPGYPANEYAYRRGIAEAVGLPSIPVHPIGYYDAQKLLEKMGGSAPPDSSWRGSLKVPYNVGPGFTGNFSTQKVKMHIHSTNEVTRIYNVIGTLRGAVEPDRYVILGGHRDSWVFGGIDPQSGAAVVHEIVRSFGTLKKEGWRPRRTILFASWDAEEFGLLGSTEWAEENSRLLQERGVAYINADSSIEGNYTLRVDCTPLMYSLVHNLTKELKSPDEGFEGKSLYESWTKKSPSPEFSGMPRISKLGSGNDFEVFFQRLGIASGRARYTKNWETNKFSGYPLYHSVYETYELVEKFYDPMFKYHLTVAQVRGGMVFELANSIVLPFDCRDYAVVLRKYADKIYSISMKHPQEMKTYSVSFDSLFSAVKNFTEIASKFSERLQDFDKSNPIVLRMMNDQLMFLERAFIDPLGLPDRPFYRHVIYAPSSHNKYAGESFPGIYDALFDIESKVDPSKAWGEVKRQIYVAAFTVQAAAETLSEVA
A short description of data set [10]: Drug uptake in nucleus of PSMA-negative human PC3 cells measured after 40 milliseconds. The class given is ADME, subcellular. The conditions noted are these: pc-3.
The target in data set [11] is T1, Glutamate carboxypeptidase 2. As to the kind of experiment: Binding affinity to PSMA in human LNCAP cells assessed as doxorubicin release in cytoplasm measured after 48 hrs. Type of data set: ADME, cell-based.
The nature of data set [12]: Drug uptake in cytoplasm of PSMA-negative human PC3 cells measured after 40 milliseconds. The class given is ADME, subcellular. As to conditions: pc-3.
In data set [13] the target is T1, Glutamate carboxypeptidase 2. As to the kind of experiment: Binding affinity to PSMA in human LNCAP cells assessed as doxorubicin release in cytoplasm measured after 40 milliseconds. Type of data set: ADME, cell-based.
Data set [14] in a line: Drug uptake in PSMA-negative human PC3 cells measured after 2 hrs by DAPI staining based fluorescence assay. Type of data set: ADME, cell-based. As to conditions: pc-3, 2 h.
Data set [15] concerns the target T1, Glutamate carboxypeptidase 2. As to the kind of experiment: Binding affinity to PSMA in human LNCAP cells measured after 2 hrs by DAPI staining based fluorescence assay. Type of data set: ADME, cell-based.

For `COc1cccc2c1C(=O)c1c(O)c3c(c(O)c1C2=O)C[C@@](O)(C(=O)CO)C[C@@H]3O[C@H]1C[C@H](N)[C@H](O)[C@H](C)O1` [DOXORUBICIN], the CC50 in the data set with PC-3 [1] is below 0.5 µM; with LNCaP it was 0.107 µM. Also, the IC50 in the data set with PC-3 [2] and in the data set on LNCaP C4-2 was above 0.032 µM in each case. For the same compound, the Drug uptake entry in data set [3], in data set [4] and in [5] was “Active” in each case. Also, the Ratio in [6] was 3.5; in [7] it was 3.7. In addition, in data set [8], the inhibition in vivo at 4 mg/kg amounted to 92%.
Consider `COc1cccc2c1C(=O)c1c(O)c3c(c(O)c1C2=O)C[C@@](O)(C(=O)CO)C[C@@H]3O[C@H]1C[C@H](NC(=O)CCC(=O)NCCCCCCCCCCC(=O)NCCCC[C@H](NC(=O)N[C@@H](CCC(=O)O)C(=O)O)C(=O)O)[C@H](O)[C@H](C)O1`, for which the figures for the Activity result in [9], in data set [11] and in data set [13] were “Not Active”, “Active” and “Not Active”, respectively. For the same compound, the CC50 result in the data set with PC-3 [1] and in the data set with LNCaP was “inactive” each time. Besides, the result in the data set with PC-3 [2] and in the data set with LNCaP C4-2 was inactive. For the same compound, the Drug uptake entry in data set [10] and in data set [12] was “Not Active” in each case.
In the case of `CN1\C(=C/C=C/C=C/C2=[N+](CCCCCC(=O)NCCCCCCCCCCC(=O)NCCCC[C@H](NC(=O)N[C@@H](CCC(=O)O)C(=O)O)C(=O)O)c3cc(S(=O)(=O)[O-])ccc3C2(C)C)C(C)(C)c2cc(S(=O)(=O)[O-])ccc21.[Na+]`, the Drug uptake result in data set [14] was “Not Active”. In addition, the result in data set [15] was Active.

A word on the CC50: it is the concentration that lowers cell viability or growth by half. The term IC50 denotes the concentration that gives 50% inhibition. The low end stands for greater potency, the high end for weaker potency.

Source of the values: ChEMBL document CHEMBL4392830, “Synthesis and biological evaluation of Doxorubicin-containing conjugate targeting PSMA” (Bioorg Med Chem Lett, 2019).
